Test results as given in the Kinase Knowledgebase extract (Sharma et al. 2016).
pIC50: −log10 of the molar value. Values joined by “and” are separate entries in the source; they are usually repeats but may differ in a detail not shown here. Equal entries are not always repeated.

Columns and labels:
EGFR = EGFR (UniProt P00533)
EGFR (human) [1] = molecular target: EGFR (human) (UniProt P00533); conditions: skov-3
EGFR (human) [2] = molecular target: EGFR (human) (UniProt P00533); conditions: a431
EGFR (human) [3] = molecular target: EGFR (human) (UniProt P00533); conditions: a431; remark: listed apart in the source
EGFR (mouse) = EGFR (mouse) (UniProt P00533); conditions: nih3t3
EGFR (human) [4] = molecular target: EGFR (human) (UniProt P00533); conditions: igrov-1

Sequence of EGFR (human) (P00533 whole entry, looked up): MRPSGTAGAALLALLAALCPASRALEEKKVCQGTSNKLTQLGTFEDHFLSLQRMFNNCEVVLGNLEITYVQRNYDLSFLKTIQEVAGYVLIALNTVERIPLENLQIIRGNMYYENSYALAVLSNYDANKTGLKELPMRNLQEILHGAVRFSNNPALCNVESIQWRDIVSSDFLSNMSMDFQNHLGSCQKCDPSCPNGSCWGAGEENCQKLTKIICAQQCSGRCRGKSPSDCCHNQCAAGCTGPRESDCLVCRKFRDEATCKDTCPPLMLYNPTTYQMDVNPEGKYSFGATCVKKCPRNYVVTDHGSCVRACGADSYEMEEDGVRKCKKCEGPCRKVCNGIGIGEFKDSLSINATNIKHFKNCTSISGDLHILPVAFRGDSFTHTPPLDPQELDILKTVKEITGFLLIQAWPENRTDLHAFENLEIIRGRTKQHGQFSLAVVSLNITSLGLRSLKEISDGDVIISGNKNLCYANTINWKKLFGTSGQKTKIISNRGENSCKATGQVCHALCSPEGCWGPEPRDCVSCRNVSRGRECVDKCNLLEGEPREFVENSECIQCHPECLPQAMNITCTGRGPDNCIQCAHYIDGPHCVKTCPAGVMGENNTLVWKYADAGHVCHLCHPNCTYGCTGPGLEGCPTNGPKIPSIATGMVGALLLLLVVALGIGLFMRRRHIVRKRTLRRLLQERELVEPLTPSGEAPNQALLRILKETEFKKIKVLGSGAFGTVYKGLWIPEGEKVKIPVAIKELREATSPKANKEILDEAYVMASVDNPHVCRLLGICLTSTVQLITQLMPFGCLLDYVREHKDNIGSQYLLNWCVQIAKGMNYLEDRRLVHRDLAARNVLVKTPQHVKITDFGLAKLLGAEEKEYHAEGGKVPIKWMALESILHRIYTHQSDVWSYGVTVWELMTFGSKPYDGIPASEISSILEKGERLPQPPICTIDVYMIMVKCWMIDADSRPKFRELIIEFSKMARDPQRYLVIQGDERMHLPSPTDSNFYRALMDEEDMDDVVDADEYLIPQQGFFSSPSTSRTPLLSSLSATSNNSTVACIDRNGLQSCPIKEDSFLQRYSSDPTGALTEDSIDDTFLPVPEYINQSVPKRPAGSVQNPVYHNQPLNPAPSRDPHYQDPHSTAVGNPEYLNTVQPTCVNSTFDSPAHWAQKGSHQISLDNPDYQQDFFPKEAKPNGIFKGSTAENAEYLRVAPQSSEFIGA
Sequence of EGFR (P00533 whole entry, looked up): as above

| Structure (SMILES) | pIC50 (EGFR) | pIC50 (EGFR (human) [1]) | pIC50 (EGFR (human) [2]) | pIC50 (EGFR (human) [3]) | pIC50 (EGFR (mouse)) | pIC50 (EGFR (human) [4]) |
| --- | --- | --- | --- | --- | --- | --- |
| CC1=CCC[C@]23O[C@H]2[C@@H](OC3=O)c2c(O)ccc(O)c2C1 | 4.59 | – | – | – | – | – |
| CC(=O)Oc1ccc(OC(C)=O)c2c1CC(C)=CCC[C@]13O[C@H]1[C@H]2OC3=O | – | 4.39 | 4.66 and 4.00 | 4.80 | 5.08 | 4.65 |
| CC1=CCC[C@]23O[C@H]2[C@@H](OC3=O)C2=C(C1)C(=O)C(O)=CC2=O | 5.26 | 6.00 | – | 7.00 | 7.70 | 6.10 |
| CC1=CCC[C@]23O[C@H]2[C@@H](OC3=O)C2=C(C1)C(=O)C=CC2=O | 4.57 | 4.66 | 4.00 and < 4.00 | 5.44 | – | 5.21 |
| COc1ccc(OC)c2c1CC(C)=CCC[C@]13O[C@H]1[C@H]2OC3=O | – | < 4.00 | – | < 4.00 | – | < 4.00 |
